Test results from patent publication EP0509769B1, “Heterocyclic amides having HLE inhibiting activity” (ZENECA LIMITED, priority 1991, dated 1992).

Experiments:
[1] = in vivo test (not specified further)
[2] = target: T1, human neutrophil elastase (HNE) (Homo sapiens, UniProt P08246); test: Acute Hemorrhagic Assay: lung hemorrhage in hamsters after intratracheal HNE; type: in vivo, hamster; details: dose of 5 mg/kg by mouth, 30 min prior to administration of HNE; male Syrian hamsters
T1 construct: host or cells: exogenous human enzyme instilled into the trachea of male Syrian hamsters
T1 sequence (P08246 30-267): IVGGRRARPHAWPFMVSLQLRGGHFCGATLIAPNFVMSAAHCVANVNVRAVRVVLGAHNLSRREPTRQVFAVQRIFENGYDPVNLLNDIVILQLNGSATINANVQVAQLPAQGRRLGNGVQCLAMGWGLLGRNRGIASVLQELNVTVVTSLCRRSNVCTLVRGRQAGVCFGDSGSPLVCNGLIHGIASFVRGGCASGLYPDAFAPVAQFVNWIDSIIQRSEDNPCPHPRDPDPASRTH
From the text: This assay relies on monitoring only the amount of hemorrhage in the lung following intratracheal administration of human neutrophil elastase (HNE). Hemorrhage is quantified by disrupting erythrocytes recovered in lung lavage fluid and comparing that to dilutions of whole hamster blood. […] Four hours after enzyme administration, the animals are killed with an overdose of pentobarbital sodium, the thorax opened and the lungs and trachea removed. The excised lungs are lavaged with three changes of 2 mL normal saline via a tracheal cannula. The recovered lavages are pooled, the volumes (about 5 mL) are recorded and the lavages stored at 4 °C until assayed. For calculation of the amount of blood in each sample, the thawed lavages and a sample of whole hamster blood are sonicated to disrupt erythrocytes and appropriately diluted into individual wells of a 96-well microtiter plate. The optical densities (OD) of the disrupted lavages and blood samples are determined at 405 nm. The (µL blood equivalents) / (mL lavage) are determined by comparing the OD of the test samples with the OD of the standard curve prepared from whole hamster blood. The total µL equivalents of blood recovered is determined by multiplying recovered lavage volume by the (µL blood equivalents) / (mL lavage) for each sample.

Row | Compound | activity in an in vivo test [1] | inhibition of hemorrhage [2]
1 | CC(C)C(NC(=O)Cn1c(-c2ccccc2)ccc(NC(=O)Cc2ccc(N)cc2)c1=O)C(=O)C(F)(F)F.Cl (stereo not drawn) [Example 159, 2-[3-(4-Aminophenylacetylamino)-2-oxo-6-phenyl-1,2-dihydro-1-pyridyl]-N-(3,3,3-trifluoro-1-isopropyl-2-oxopropyl)acetamide hydrochloride] | activity | –
2 | CC(C)C(NC(=O)Cn1c(-c2ccccc2)ccc(N)c1=O)C(=O)C(F)(F)F (stereo not drawn) [Example 49, 2-(3-Amino-2-oxo-6-phenyl-1,2-dihydro-1-pyridyl)-N-(3,3,3-trifluoro1-isopropyl-2-oxopropyl)acetamide] | activity | –
3 | CC(C)C(NC(=O)Cn1c(-c2ccccc2)ccc(NC(=O)C(F)(F)F)c1=O)C(=O)C(F)(F)F (stereo not drawn) [Example 167, 2-(3-trifluoroacetylamino-2-oxo-6-phenyl-1,2-dihydro-1-pyridyl)-N-(3,3,3-trifluoro-1-isopropyl-2-oxopropyl)acetamide] | – | statistically significant inhibition of hemorrhage
